Patent publication US8211646B1, “Methods of treating ovarian cancer by modulating SnoN” (University of South Florida, priority 2008, dated 2012)

What was measured:
Assay type in all cases: cell-based
ovarian cancer cells = experiment: Cell titer glo cell viability assay
Method: Measurement of Intracellular ATP Levels. T80, HEY, and SKOV3 ovarian cells were seeded in triplicate for each treatment group at 5000 cells per well into each well of a 96 well white-opaque plate. Following overnight cell attachment, cells were treated for 18 hours with appropriate doses of arsenic trioxide or geldanamycin (0 mM, 2 μM, 5 μM, 10 μM, 25 μM, and 50 μM). Following termination of the cell treatments, the media was removed from the wells and replaced with 100 μl of phosphate-buffered saline (PBS). The plate was equilibrated to room temperature, 100 μl of Cell-Titer Glo reagent (Promega, Madison, Wis.) was added, and mixed on a plate shaker for 2 minutes. The plate was further incubated for 10 minutes at room temperature prior to reading with a Biotek luminescence plate reader to obtain relative light unit (RLU) measurements. Empty wells (containing no cells) were utilized as a correction for background luminescence. All experiments were performed in triplicate.

[1] = system: immortalized and cancer ovarian cell lines; experiment: Boyden chamber migration assay; conditions: 5 μM As2O3 6 hours, then 18 hours in Boyden chamber
Method: FIGS. 25(A) through (C) are graphs showing arsenic trioxide induces cell death and inhibits migratory potential. HEY cells were treated for 6 hours with 5 μM As2O3 and seeded at 25,000 cells into Boyden chamber inserts for 18 hours. Cells were stained with crystal violet and counted.
TAg/hTert immortalized normal ovarian epithelial cells (TIOSE: T29 and T80) and ovarian cancer cells (OVCAR8, OVCA429, SKOV3, and HEY) were transfected with siRNA were counted 24 h post-transfection and 5000 cells were plated in each well of a 96-well plate maintained in 10% FBS. At various days, cells were fixed and stained with crystal violet solution, dissolved in Sorenson's buffer, and absorbance measured at 570 nm. To assess migration, cells transfected with siRNA were counted 24 h post-transfection and seeded into Boyden chamber inserts in serum-free media. FBS in the lower chamber media (RPMI 1640) was used as a chemoattractant for 24 h. The cells that migrated onto the lower membrane were stained with crystal violet, photographed, and counted.

glutathione (GSH) = experiment: GSH-Glo glutathione assay; conditions: T80, HEY, SKOV3; 18 hours
Method: Glutathione (GSH) was measured using the GSH Glo kit (Promega). Briefly, T80, HEY, and SKOV3 ovarian cells were plated at 5000 cells/well in opaque white 96 well plates. Following overnight attachment, cells were treated with As2O3 for 18 hours. Following cell treatments, the media was discarded and fresh PBS was added for washout followed by the addition of 100 μl of GSH-Glo reagent. Following a 2 minute shake, the cells were incubated at room temperature for 30 minutes followed by the addition of reconstituted luciferase detection reagent. The cells were incubated for a further 15 minutes at room temperature and the plate was read on a Biotek luminescence plate reader. All measurements were performed in triplicate.

cleaved PARP = experiment: Western analysis of PARP cleavage (early apoptosis marker)
Method: Proteins were resolved on an 8%, 12%, or 15% SDS-PAGE gel (as appropriate) and electrophoretically transferred to polyvinyldifluoride (PVDF) membranes. After blocking with 5% (w/v) milk in TBST (Tris-Buffered Saline containing 0.1% Tween-20) for one hour at room temperature, membranes were incubated with primary antibodies (at appropriate dilution) overnight at 4° C., followed by extensive washing and incubation for 1 hour with the appropriate horseradish peroxidase-conjugated secondary antibodies (BioRad, Hercules, Calif.). Blots were washed extensively. A rabbit polyclonal EVI1 antibody was obtained (1:3000 dilution, St. Jude's Children's Hospital, Memphis, Tenn.). SnoN rabbit polyclonal (1:1000 dilution), PML, and p21 SMURF2 rabbit polyclonal (1:500 dilution), MRP1 mouse monoclonal (1:500 dilution) and GAPDH mouse monoclonal (1:250 dilution) antibodies were obtained from Santa Cruz Biotechnology (Santa Cruz, Calif.). TGFβRII rabbit polyclonal (1:1000 dilution) antibody was obtained from Strategic Diagnostics (Newark, Del.). Smad2/3 rabbit polyclonal (1:1000 dilution), Beclin-1 rabbit polyclonal (1:1000 dilution), AKT rabbit polyclonal (1:1000 dilution), TAK1 rabbit polyclonal (1:1000 dilution), PARP rabbit polyclonal (1:1000 dilution), Beclin-1 rabbit polyclonal (1:1000 dilution), caspase-3 rabbit polyclonal (1:1000) which detects the pro-caspase form, and ATG5 rabbit polyclonal (1:1000 dilution), LC3-II rabbit polyclonal (1:1000 dilution) antibodies were obtained from Cell Signaling Technology (Danvers, Mass.). The HSP27 mouse monoclonal (1:1000 dilution) antibody was obtained from Stressgen (Ann Arbor, Mich.). Blots were developed using chemiluminescence substrates (Amersham Piscataway, N.J. or BioRad, Hercules, Calif.). Monoclonal PAI-1 antibody was obtained from BD Pharmingen. PSMAD2, total SMAD2/3, p-ERK, p-AKT, and total AKT antibodies were obtained from Cell Signaling Technology. A monoclonal antibody against Arkadia was obtained from Abnova (Taiwan).
Densitometric analysis was performed using the HP Scanjet 5590 and the Image J program (Image Processing and Analysis in Java, NIH Image Software). Bands were selected and the intensity values were normalized to those for GAPDH. The values are presented as fold-changes relative to control siRNA treated cells.
The clinical inhibitors As2O3, geldanamycin (17-AAG) (dissolved in dimethylsulfoxide [DMSO]), and MG132 (dissolved in DMSO) were obtained from Sigma-Aldrich (St. Louis, Mo.), Fisher Scientific (Pittsburgh, Pa.), and Alexis Biochemicals (Farmingdale, N.Y.), respectively. N-acetyl-L-cysteine (NAC; dissolved in media) and Bortezomib (PS-341; dissolved in DMSO) were obtained from Fisher Scientific. 3-Methyladenine (3-MA; dissolved in media) was obtained from MP Biomedicals (Solon, Ohio). Tiron (4,5-Dihydroxy-1,3-benzenedisulfonic acid, dissolved in media) was obtained from Fisher Scientific. zVAD-fmk (dissolved in DMSO) and bafilomycin A (dissolved in DMSO) was obtained from Axxora LLC (San Diego, Calif.). Bovine catalase was obtained from Sigma-Aldrich. HBED and Mn TBAP was obtained from ENZO Life Sciences (Farmingdale, N.Y.). Ovarian cells were plated in 6-well plates at 250,000 cells per well and grown in complete medium. The following day, the cells were treated with 5 μM MG132, As2O3 (between 2-50 μM), 17-AAG (between 2-50 μM), NAC (Fisher Scientific, between 25 μM to 1 mM), Tiron (between 25 μM to 1 mM), 3-MA (0.1 mM to 10 mM), or zVAD-fmk (25 μM to 100 μM). For control cells, DMSO (a final concentration of <0.5%) was added to compare appropriately to drugs dissolved in DMSO. After the appropriate incubation time (6 or 18 hours), cell lysates were collected, protein quantified, and SDS-PAGE/western analysis was performed. In addition, for selected studies, RNA was isolated, quantified, and used for qPCR analysis.

Arsenic trioxide [As2O3]
reduction of cell growth (cellular viability) (ovarian cancer cells; 25 μM, 18 hour treatment, relative to control cells): 50% | sensitivity of cellular viability to As2O3 (ovarian cancer cells; SKOV3 (high EVI1) compared to T80 (low EVI1), 2-50 μM, 18 hours): more resistant | reduction of migratory potential [1]: more than fifty percent | GSH levels (glutathione (GSH)): markedly reduced | dose at which PARP fragmentation dramatically increased (cleaved PARP; HEY and SKOV3): 50 µM | dose at which PARP fragmentation dramatically increased (cleaved PARP; T80): 25 µM
